Source: US20240382483A1, “HETEROCYCLIC EGFR INHIBITORS FOR USE IN THE TREATMENT OF CANCER” (Blueprint Medicines Corporation, priority 2021, published 2024)

Tests used:
[1] = target: T1, intracellular phosphorylation of EGFR in NCI-H1975 cell line that harbors the EGFR L858R T790M mutations (Homo sapiens, UniProt P00533, L858R/T790M); assay: NCI-H1975 pEGFR AlphaLISA assay; type: cell-based; details: NCI-H1975 cells (EGFR L858R T790M), p-EGFR (Tyr1068), 4-5 hours incubation; read-out: Ext pEGFR H1975 GMean IC50 (nM) Protocol: @Pharmaron AlphaLISA (Num)
T1 construct: NCI-H1975 cell line that harbors the EGFR L858R T790M mutations (ATCC, CRL-5908); host or cells: NCI-H1975
T1 sequence (P00533 25-1210 T790M/L858R): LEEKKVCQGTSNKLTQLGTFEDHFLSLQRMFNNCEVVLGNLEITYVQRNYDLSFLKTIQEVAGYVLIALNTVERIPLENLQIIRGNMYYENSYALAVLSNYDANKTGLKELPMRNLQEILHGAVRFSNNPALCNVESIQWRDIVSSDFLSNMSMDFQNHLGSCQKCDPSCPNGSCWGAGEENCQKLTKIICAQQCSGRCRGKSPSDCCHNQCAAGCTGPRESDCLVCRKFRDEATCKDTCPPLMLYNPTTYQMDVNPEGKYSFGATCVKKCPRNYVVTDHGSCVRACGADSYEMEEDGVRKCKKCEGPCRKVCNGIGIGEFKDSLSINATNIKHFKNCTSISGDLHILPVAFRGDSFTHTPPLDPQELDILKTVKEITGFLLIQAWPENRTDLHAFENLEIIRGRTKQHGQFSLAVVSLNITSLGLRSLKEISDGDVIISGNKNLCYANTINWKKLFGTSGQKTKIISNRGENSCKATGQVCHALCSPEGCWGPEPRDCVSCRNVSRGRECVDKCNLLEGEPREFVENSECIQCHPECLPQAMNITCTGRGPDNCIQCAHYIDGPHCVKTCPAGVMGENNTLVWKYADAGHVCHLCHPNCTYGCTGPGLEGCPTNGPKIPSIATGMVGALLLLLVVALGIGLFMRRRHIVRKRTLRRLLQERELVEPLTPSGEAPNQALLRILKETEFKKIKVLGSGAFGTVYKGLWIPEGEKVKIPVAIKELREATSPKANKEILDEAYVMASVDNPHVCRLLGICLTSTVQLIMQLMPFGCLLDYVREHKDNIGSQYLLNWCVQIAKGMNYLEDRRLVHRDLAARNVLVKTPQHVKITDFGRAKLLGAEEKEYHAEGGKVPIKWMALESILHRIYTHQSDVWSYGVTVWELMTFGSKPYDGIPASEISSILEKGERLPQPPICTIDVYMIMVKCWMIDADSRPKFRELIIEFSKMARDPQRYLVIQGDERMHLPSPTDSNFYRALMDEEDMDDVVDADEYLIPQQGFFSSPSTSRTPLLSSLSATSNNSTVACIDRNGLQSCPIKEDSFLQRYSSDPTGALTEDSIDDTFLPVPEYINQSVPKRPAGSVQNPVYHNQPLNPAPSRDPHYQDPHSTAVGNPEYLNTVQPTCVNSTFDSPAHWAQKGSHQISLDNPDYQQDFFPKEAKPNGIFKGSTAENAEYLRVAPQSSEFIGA
Protocol: On the next day, the test compounds and DMSO control were added into H1975 cell plate followed by incubation at 37C/5% CO2 for 4-5 hours. […] Then 5 μL of a donor bead mix was added to each well followed by overnight incubation at room temperature in dark. On the next day, the plate was read at a compatible plate reader to obtain pEGFR signal. Percent of pEGFR inhibition was plotted against log concentration of compounds to generate IC50 values.

[2] = target: T2, EGFR (L858R T790M C797S) (Homo sapiens, UniProt P00533, C797S/L858R/T790M); assay: Biochemical EGFR inhibition assay (Caliper mobility shift), EGFR LRTMCS; details: LRTMCS (PH) IC50 (nM) @ 1 mM ATP (Num), EGFR LRTMCS mutant
T2 construct: purchased SignalChem E10-122VG
T2 sequence (P00533 25-1210 T790M/C797S/L858R): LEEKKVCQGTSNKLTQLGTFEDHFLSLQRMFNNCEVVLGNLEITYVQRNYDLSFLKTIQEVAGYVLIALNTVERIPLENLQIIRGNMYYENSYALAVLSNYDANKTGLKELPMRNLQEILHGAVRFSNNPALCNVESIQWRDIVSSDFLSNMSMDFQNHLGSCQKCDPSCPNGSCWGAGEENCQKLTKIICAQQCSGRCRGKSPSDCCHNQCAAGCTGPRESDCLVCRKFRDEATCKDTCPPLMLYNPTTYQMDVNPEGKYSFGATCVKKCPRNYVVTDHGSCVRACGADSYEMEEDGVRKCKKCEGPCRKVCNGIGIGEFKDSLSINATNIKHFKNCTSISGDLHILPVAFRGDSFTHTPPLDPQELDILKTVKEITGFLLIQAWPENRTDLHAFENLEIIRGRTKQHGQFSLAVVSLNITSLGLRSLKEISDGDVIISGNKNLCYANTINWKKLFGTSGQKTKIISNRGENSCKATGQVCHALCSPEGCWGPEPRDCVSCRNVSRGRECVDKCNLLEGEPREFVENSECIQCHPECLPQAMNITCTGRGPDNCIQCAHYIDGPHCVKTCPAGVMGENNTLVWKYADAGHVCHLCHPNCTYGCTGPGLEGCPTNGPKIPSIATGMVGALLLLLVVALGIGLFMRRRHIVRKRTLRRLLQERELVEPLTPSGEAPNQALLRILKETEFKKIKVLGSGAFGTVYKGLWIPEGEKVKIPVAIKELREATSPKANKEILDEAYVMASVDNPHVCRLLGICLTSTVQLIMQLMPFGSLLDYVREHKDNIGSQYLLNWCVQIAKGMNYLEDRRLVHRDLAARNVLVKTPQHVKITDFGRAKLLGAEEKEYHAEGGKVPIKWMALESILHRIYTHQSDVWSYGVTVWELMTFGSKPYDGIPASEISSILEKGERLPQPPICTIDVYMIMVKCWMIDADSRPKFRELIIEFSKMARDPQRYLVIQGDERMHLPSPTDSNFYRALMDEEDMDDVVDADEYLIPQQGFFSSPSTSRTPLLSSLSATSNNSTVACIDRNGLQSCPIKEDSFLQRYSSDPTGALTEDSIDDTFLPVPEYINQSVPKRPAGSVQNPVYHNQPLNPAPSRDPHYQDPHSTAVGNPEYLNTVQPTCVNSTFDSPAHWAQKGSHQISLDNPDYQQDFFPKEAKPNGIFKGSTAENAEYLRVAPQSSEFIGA
Protocol: Reactions proceeded until between 10% to 20% total peptides were phosphorylated at room temperature (25° C.) and were terminated with 35 mM 2,2′,2″,2′″-(ethane-1,2-diyldinitrilo)tetraacetic acid (EDTA). Product was detected using the Caliper mobility shift detection method where the phosphorylated peptide (product) and substrate were electrophoretically separated and measured. Percent activity was plotted against log concentration of compound and points to generate an apparent IC50.

SMILES | IC50 [1] [nM] | IC50 [2] [nM]
CC(C)c1cnc(N2C[C@H](O)[C@H]2C)c2cnc(Nc3ccnc(N4C[C@@H](F)[C@@H](O)[C@](C)(F)C4)n3)cc12 (single isomer, unassigned) [Example 136, (3R,4R,5R)-3,5-difluoro-1-(4-((8-((2R,3S)-3-hydroxy-2-methylazetidin-1-yl)-5-isopropyl-2,7-naphthyridin-3-yl)amino)pyrimidin-2-yl)-3-methylpiperidin-4-ol or (3S,4S,5S)-3,5-difluoro-1-(4-((8-((2R,3S)-3-hydroxy-2-methylazetidin-1-yl)-5-isopropyl-2,7-naphthyridin-3-yl)amino)pyrimidin-2-yl)-3-methylpiperidin-4-ol] | 20 to 30 | < 15
CC(C)c1cnc(N2CC3(CN(C)C(=O)O3)C2)c2cnc(Nc3ccnc(N4CC[C@@H](O)[C@@](C)(F)C4)n3)cc12 [Example 71, 2-(6-((2-((3S,4R)-3-fluoro-4-hydroxy-3-methylpiperidin-1-yl)pyrimidin-4-yl)amino)-4-isopropyl-2,7-naphthyridin-1-yl)-7-methyl-5-oxa-2,7-diazaspiro[3.4]octan-6-one] | 30 to 50 | 20 to 30
Cc1nnc(-c2ncc(C(C)C)c3cc(Nc4ccnc(N5CC[C@@H](O)[C@@](C)(F)C5)n4)ncc23)o1 [Example 5, (3S,4R)-3-fluoro-1-(4-((5-isopropyl-8-(5-methyl-1,3,4-oxadiazol-2-yl)-2,7-naphthyridin-3-yl)amino)pyrimidin-2-yl)-3-methylpiperidin-4-ol] | 10 to 20 | < 15
CNC(=O)C1(F)CN(c2ncc(C(C)C)c3cc(Nc4ccnc(N5CC[C@@H](O)[C@@](C)(F)C5)n4)ncc23)C1 [Example 85, 3-fluoro-1-(6-((2-((3S,4R)-3-fluoro-4-hydroxy-3-methylpiperidin-1-yl)pyrimidin-4-yl)amino)-4-isopropyl-2,7-naphthyridin-1-yl)-N-methylazetidine-3-carboxamide] | 30 to 50 | 20 to 30
COC[C@@H](C)c1cnc(N2CC[C@H]2C)c2cnc(Nc3ccnc(N4CC[C@@H](O)[C@@](C)(F)C4)n3)cc12 (single isomer, unassigned) [Example 216, (3S,4R)-3-fluoro-1-(4-((5-((S)-1-methoxypropan-2-yl)-8-((R)-2-methylazetidin-1-yl)-2,7-naphthyridin-3-yl)amino)pyrimidin-2-yl)-3-methylpiperidin-4-ol or (3S,4R)-3-fluoro-1-(4-((5-((R)-1-methoxypropan-2-yl)-8-((R)-2-methylazetidin-1-yl)-2,7-naphthyridin-3-yl)amino)pyrimidin-2-yl)-3-methylpiperidin-4-ol] | 20 to 30 | 15 to 20
CC(C)c1cnc(N2CC[C@H]2C)c2cnc(Nc3ccnc(N4CC[C@H](OCCN(C)C)[C@H](F)C4)n3)cc12 [Example 202, N-(2-((3R,4S)-4-(2-(dimethylamino)ethoxy)-3-fluoropiperidin-1-yl)pyrimidin-4-yl)-5-isopropyl-8-((R)-2-methylazetidin-1-yl)-2,7-naphthyridin-3-amine] | 30 to 50 | 30 to 100
CO[C@@H]1CCN(c2nccc(Nc3cc4c(C(C)C)ncc(N5C[C@H](O)[C@H]5C)c4cn3)n2)C[C@@H]1O (single isomer, unassigned) [Example 119, (3S,4R)-1-(4-((8-((2R,3S)-3-hydroxy-2-methylazetidin-1-yl)-5-isopropyl-2,6-naphthyridin-3-yl)amino)pyrimidin-2-yl)-4-methoxypiperidin-3-ol or (3R,4S)-1-(4-((8-((2R,3S)-3-hydroxy-2-methylazetidin-1-yl)-5-isopropyl-2,6-naphthyridin-3-yl)amino)pyrimidin-2-yl)-4-methoxypiperidin-3-ol] | > 50 | 20 to 30

Other lines, results leading:

IC50 [1] [nM] | IC50 [2] [nM] | SMILES
< 10 | < 15 | CC(C)c1ccc(N2CC(n3ccnn3)C2)c2cnc(Nc3ccnc(N4CC[C@@H](O)[C@@](C)(F)C4)n3)cc12 [Example 38, (3S,4R)-1-(4-((8-(3-(1H-1,2,3-triazol-1-yl)azetidin-1-yl)-5-isopropylisoquinolin-3-yl)amino)pyrimidin-2-yl)-3-fluoro-3-methylpiperidin-4-ol]
30 to 50 | 15 to 20 | CC(C)c1cnc(N2CCC2)c2cnc(Nc3ccnc(N4CC[C@@H](O)[C@@H](F)C4)n3)cc12 [Example 152, (3S,4R)-1-(4-((8-(azetidin-1-yl)-5-isopropyl-2,7-naphthyridin-3-yl)amino)pyrimidin-2-yl)-3-fluoropiperidin-4-ol]
> 50 | 30 to 100 | CO[C@@H]1CCN(c2nccc(Nc3cc4c(C(C)C)ncc(N5CC(C(=O)N(C)C)C5)c4cn3)n2)C[C@@H]1O (single isomer, unassigned) [Example 121, 1-(7-((2-((3S,4R)-3-hydroxy-4-methoxypiperidin-1-yl)pyrimidin-4-yl)amino)-1-isopropyl-2,6-naphthyridin-4-yl)-N,N-dimethylazetidine-3-carboxamide or 1-(7-((2-((3R,4S)-3-hydroxy-4-methoxypiperidin-1-yl)pyrimidin-4-yl)amino)-1-isopropyl-2,6-naphthyridin-4-yl)-N,N-dimethylazetidine-3-carboxamide]
10 to 20 | < 15 | [2H]C([2H])([2H])O[C@H]1CCN(c2nccc(Nc3cc4c(C(C)C)cnc(N5C[C@H](O)[C@H]5C)c4cn3)n2)C[C@H]1F [Example 138, (2R,3S)-1-(6-((2-((3R,4S)-3-fluoro-4-(methoxy-d3)piperidin-1-yl)pyrimidin-4-yl)amino)-4-isopropyl-2,7-naphthyridin-1-yl)-2-methylazetidin-3-ol]
10 to 20 | 20 to 30 | CC(C)c1cnc(N2C[C@H](OC(F)F)[C@H]2C)c2cnc(Nc3ccnc(N4CC[C@@H](O)[C@@](C)(F)C4)n3)cc12 [Example 109, (3S,4R)-1-(4-((8-((2R,3S)-3-(difluoromethoxy)-2-methylazetidin-1-yl)-5-isopropyl-2,7-naphthyridin-3-yl)amino)pyrimidin-2-yl)-3-fluoro-3-methylpiperidin-4-ol]
20 to 30 | < 15 | CC(C)c1ccc(N2CC[C@H]2CO)c2cnc(Nc3ccnc(N4CC[C@@H](O)[C@@](C)(F)C4)n3)cc12 [Example 105, (3S,4R)-3-fluoro-1-(4-((8-((S)-2-(hydroxymethyl)azetidin-1-yl)-5-isopropylisoquinolin-3-yl)amino)pyrimidin-2-yl)-3-methylpiperidin-4-ol]
30 to 50 | 20 to 30 | CC(C)c1ncc(N2CCC23CN(C)C3)c2cnc(Nc3ccnc(N4CC[C@@H](O)[C@@](C)(F)C4)n3)cc12 [Example 195, (3S,4R)-3-fluoro-1-(4-((5-isopropyl-8-(6-methyl-1,6-diazaspiro[3.3]heptan-1-yl)-2,6-naphthyridin-3-yl)amino)pyrimidin-2-yl)-3-methylpiperidin-4-ol]
< 10 | < 15 | COC[C@@H]1CCN1c1ncc(C(C)C)c2cc(Nc3ccnc(N4CC[C@@H](O)[C@@](C)(F)C4)n3)ncc12 [Example 29, (3S,4R)-3-fluoro-1-(4-((5-isopropyl-8-((S)-2-(methoxymethyl)azetidin-1-yl)-2,7-naphthyridin-3-yl)amino)pyrimidin-2-yl)-3-methylpiperidin-4-ol]
30 to 50 | < 15 | CC(C)c1cnc(N2C[C@H](O)[C@H]2C)c2cnc(Nc3ccnc(N4CC[C@@](C)(O)[C@@H](F)C4)n3)cc12 (single isomer, unassigned) [Example 173, (3S,4R)-3-fluoro-1-(4-((8-((2R,3S)-3-hydroxy-2-methylazetidin-1-yl)-5-isopropyl-2,7-naphthyridin-3-yl)amino)pyrimidin-2-yl)-4-methylpiperidin-4-ol or (3R,4S)-3-fluoro-1-(4-((8-((2R,3S)-3-hydroxy-2-methylazetidin-1-yl)-5-isopropyl-2,7-naphthyridin-3-yl)amino)pyrimidin-2-yl)-4-methylpiperidin-4-ol]
30 to 50 | 20 to 30 | CO[C@@H]1CCN(c2nccc(Nc3cc4c(C(C)C)cnc(N5CC(C(=O)N(C)C)C5)c4cn3)n2)C[C@@H]1O (single isomer, unassigned) [Example 120, 1-(6-((2-((3S,4R)-3-hydroxy-4-methoxypiperidin-1-yl)pyrimidin-4-yl)amino)-4-isopropyl-2,7-naphthyridin-1-yl)-N,N-dimethylazetidine-3-carboxamide or 1-(6-((2-((3R,4S)-3-hydroxy-4-methoxypiperidin-1-yl)pyrimidin-4-yl)amino)-4-isopropyl-2,7-naphthyridin-1-yl)-N,N-dimethylazetidine-3-carboxamide]
30 to 50 | 30 to 100 | CC(C)c1cnc(N2CCC[C@H]2CN(C)C)c2cnc(Nc3ccnc(N4CC[C@@H](O)[C@@](C)(F)C4)n3)cc12 [Example 115, (3S,4R)-1-(4-((8-((S)-2-((dimethylamino)methyl)pyrrolidin-1-yl)-5-isopropyl-2,7-naphthyridin-3-yl)amino)pyrimidin-2-yl)-3-fluoro-3-methylpiperidin-4-ol]
